Reference: EP0073849A1, “Novel phenyl-1,2,3,4-tetrahydrocarbazoles, their preparation and pharmaceutical compositions containing them” (priority 1981, dated 1983)

Assays:
rat muricide = rat muricide test; type: in vivo; settings: ip, intraperitoneal administration
Source text: In the rat muricide test (based on the method of Horovitz et al., Int. J.

[1] = tested on: abnormal behaviour of beagles; test: improvement of abnormal behaviour in beagles; type: in vivo; settings: Canis lupus familiaris, po; read-out: MED for improvement of abnormal behaviour in beagles
[2] = tested on: beagles with normal behaviour; test: in vivo; settings: dog, po
[3] = tested on: behaviour, neurologic function, autonomic function; settings: rat, in vivo, ip
in vivo [4] = test: in vivo; set-up: species or system beagles; settings: dog, po
in vivo [5] = settings: rat, ip

Structure (SMILES) | ED50 (rat muricide) [mg/kg] | minimal effective dose [1] [mg/kg] | dose causing decreased motor activity and passivity [2] [mg/kg] | dose causing decreased motor activity and passivity as multiple of the MED [2] | dose causing tremors and mydriasis [2] [mg/kg] | dosage levels that cause changes in behaviour, in neurologic function or in autonomic function [3] | NOAEL at 6 h (in vivo [4]) [mg/kg] | selectivity ratio (in vivo [5])
CN(C)CCC=C1c2ccccc2CCc2ccccc21 [Amitriptyline] | 5.2 |  |  |  |  |  |  | 
CN(C)CCCN1c2ccccc2CCc2ccccc21 [Imipramine] | 6.4 | 10 | 30 | three | 10 | 30 mg./kg |  | 
COc1ccc2[nH]c3c(c2c1)CC(c1ccccc1)CC3 (stereo not drawn) [Test compound, 6-Methoxy-3-phenyl-1,2,3,4-tetrahydrocarbazole] | 1.7 | 10 |  |  |  | 100-1000 mg./kg | > 60 | 50 to 500
